Experimental data taken from patent publication US5883257A, “N-piperidinyl- and N-tetrahydropyridinyl-2-anthracenecarboxamides: dopamine receptor subtype specific ligands” (Neurogen Corporation, priority 1997, dated 1999).
Structures can show the parent of a compound that is named as a salt.

Key:
dopamine D3 receptor = dopamine D3 receptor (Chlorocebus aethiops, UniProt P52703); experiment: D3 receptor binding assay (displacement of 3H-YM 09151-2); design: species or system African Green monkey; conditions: 0.5 nM 3H-YM 09151-2; COS cells with recombinant D3 receptors; 0.05M Tris HCl, 100 mM NaCl; nonspecific: 1 mM spiperone
dopamine D2 receptor = dopamine D2 receptor (Chlorocebus aethiops, UniProt P52702); experiment: D2 receptor binding assay (displacement of 3H-YM 09151-2); design: species or system African Green monkey; conditions: 0.5 nM 3H-YM 09151-2; COS cells with recombinant D2 receptors; 0.05M Tris HCl, 100 mM NaCl; nonspecific: 1 mM spiperone
dopamine D2 receptor, sequence (P52702 whole entry): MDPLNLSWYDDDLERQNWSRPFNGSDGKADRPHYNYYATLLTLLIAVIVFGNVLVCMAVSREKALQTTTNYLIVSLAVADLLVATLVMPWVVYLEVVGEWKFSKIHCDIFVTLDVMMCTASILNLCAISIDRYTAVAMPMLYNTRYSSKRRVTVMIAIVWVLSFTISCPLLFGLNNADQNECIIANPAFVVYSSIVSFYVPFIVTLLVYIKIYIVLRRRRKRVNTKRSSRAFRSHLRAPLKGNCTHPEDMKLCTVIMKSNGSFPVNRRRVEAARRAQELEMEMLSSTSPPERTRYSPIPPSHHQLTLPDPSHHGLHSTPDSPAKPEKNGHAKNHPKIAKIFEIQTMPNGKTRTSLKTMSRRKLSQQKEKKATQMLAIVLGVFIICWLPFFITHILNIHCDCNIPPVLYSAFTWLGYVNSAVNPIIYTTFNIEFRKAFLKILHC

dopamine D3 receptor, sequence (P52703 whole entry): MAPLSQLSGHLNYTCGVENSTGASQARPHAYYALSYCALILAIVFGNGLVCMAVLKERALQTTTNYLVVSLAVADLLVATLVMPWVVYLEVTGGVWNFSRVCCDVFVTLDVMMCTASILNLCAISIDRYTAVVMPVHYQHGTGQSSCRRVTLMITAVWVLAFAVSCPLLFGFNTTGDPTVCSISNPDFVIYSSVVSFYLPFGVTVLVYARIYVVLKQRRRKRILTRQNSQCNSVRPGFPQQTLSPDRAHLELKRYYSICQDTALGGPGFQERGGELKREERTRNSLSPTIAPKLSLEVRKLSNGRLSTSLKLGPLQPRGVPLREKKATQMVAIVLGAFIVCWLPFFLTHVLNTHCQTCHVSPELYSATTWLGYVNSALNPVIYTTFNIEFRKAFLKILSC

Row | SMILES | Ki (dopamine D3 receptor) [nM] | Ki (dopamine D2 receptor) [nM]
1 | O=C(NCCCCN1CCN(c2cccc(Cl)c2Cl)CC1)c1ccc2cc3ccccc3cc2c1 [Compound 1, N-{4-[4-(2,3-Dichlorophenyl)-1-piperazinyl]butyl}-2-anthracenecarboxamide] | 7 | 1090
2 | O=C(NCCCCN1CCN(c2cccc3ccccc23)CC1)c1ccc2cc3ccccc3cc2c1 [Compound 2, N-{4-[4-(1-Naphthyl)-1-piperazinyl]butyl}-2-anthracenecarboxamide hydrochloride] | 1.2 | 550
